{"source": "patent US7367988B1", "about": "“Use of electromagnetic fields in cancer and other therapies” (The Catholic University of America, priority 2000, dated 2008)", "system": "chick embryos", "note": "Like-named read-outs stand apart in the source and are kept apart here.", "protocol": "I have investigated the effect of EM fields on the ability of taxol to create abnormalities in rapidly dividing cells. The model for this purpose was chick embryos. The embryos were incubated in the presence of a 60 Hz, 8 μT EM field. After 48 hours of continuous incubation, either dimethyl sulfoxide (DMSO) alone (controls) or Taxol dissolved in DMSO was injected. EM field incubation was continued for an additional 48 hours. At the end of 4 days incubation, embryos were visualized and classified as normal or abnormal (deformed, young, or dead)."}
{"smiles": "CC(=O)O[C@H]1C(=O)[C@@]2(C)[C@H]([C@H](OC(=O)c3ccccc3)[C@]3(O)C[C@H](OC(=O)[C@H](O)[C@@H](NC(=O)c4ccccc4)c4ccccc4)C(C)=C1C3(C)C)[C@]1(OC(C)=O)CO[C@@H]1C[C@@H]2O", "note": "[Taxol]", "values": [{"measurement": "Percent Abnormal Embryos", "setting": "Taxol + EM fields: 60 Hz, 8 μT for 48 hours before injection and an additional 48 hours after, embryos classified at 4 days", "result": 31.1, "unit": "%"}, {"measurement": "Percent Abnormal Embryos", "setting": "Taxol alone, dissolved in DMSO, injected after 48 hours of incubation, embryos classified normal or abnormal (deformed, young, or dead) at 4 days", "result": 19.3, "unit": "%"}, {"measurement": "Toxic effect of taxol with EM field exposure compared with taxol alone", "setting": "in vivo", "result": "very significant increase in the toxic effect"}]}
